Measured values: patent US7786141B2 (Vertex Pharmaceuticals Incorporated, priority 2004, dated 2010)

Tests used:
[1] = target: T1, M1 muscarinic receptor (Homo sapiens, UniProt P11229); assay: Functional mobilization of intracellular calcium (FLIPR) in M1-CHO cells; assay type: cell-based; details: Table 4; for Emax: 100% efficacy is the maximum response obtained with the Carbachol control; for M1 Activity: modulating M1 receptor
T1 construct: expressed in transfected cells; host or cells: CHO (M1-CHO)
T1 sequence (P11229 1-460): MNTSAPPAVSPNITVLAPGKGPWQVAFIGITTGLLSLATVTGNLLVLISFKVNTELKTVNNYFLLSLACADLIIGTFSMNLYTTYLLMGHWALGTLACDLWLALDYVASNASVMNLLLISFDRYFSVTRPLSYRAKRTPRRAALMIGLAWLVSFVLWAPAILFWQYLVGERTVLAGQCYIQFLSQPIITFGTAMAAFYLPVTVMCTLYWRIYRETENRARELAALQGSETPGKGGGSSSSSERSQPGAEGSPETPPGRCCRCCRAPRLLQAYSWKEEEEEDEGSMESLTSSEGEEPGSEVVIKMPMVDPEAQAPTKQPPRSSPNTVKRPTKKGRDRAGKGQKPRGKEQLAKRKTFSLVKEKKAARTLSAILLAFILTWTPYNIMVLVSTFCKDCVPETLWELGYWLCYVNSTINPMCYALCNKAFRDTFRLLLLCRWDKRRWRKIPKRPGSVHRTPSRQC
Method in brief: (§1)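 CHO cells stably expressing human M1 or M4 receptor were loaded with Fluo-3 AM (or Calcium 3 dye) in Hepes-buffered saline, pH 7.4, with 1 mM probenecid, 0.5% final DMSO. Agonist mode: compound added directly; antagonist mode: 15 min preincubation before carbachol at EC80. FLIPR fluorescence recorded 60 sec.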

[2] = target: T2, M4 muscarinic receptor (Homo sapiens, UniProt P08173); assay: Functional mobilization of intracellular calcium (FLIPR) in M4-CHO cells; assay type: cell-based; details: Table 4; for Emax: 100% efficacy is the maximum response obtained with the Carbachol control; for M4 Activity: modulating M4 receptor
T2 construct: expressed in transfected cells; host or cells: CHO (M4-CHO)
T2 sequence (P08173 1-479): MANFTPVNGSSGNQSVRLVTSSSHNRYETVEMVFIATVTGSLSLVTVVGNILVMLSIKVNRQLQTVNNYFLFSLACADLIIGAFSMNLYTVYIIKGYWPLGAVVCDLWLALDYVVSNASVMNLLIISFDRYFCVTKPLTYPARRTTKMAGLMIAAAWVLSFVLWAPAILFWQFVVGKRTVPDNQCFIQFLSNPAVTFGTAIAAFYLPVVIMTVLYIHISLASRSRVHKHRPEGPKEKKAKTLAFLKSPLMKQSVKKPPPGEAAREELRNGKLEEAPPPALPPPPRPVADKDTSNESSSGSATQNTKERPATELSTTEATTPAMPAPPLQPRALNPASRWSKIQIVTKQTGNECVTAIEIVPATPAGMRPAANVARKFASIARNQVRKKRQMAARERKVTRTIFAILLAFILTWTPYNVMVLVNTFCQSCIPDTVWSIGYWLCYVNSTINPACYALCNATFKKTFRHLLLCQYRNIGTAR
Method in brief: as §1

Row | Structure (SMILES) | Emax [1] [%] | M1 Activity [1] | Emax [2] [%] | M4 Activity [2]
1 | CC(=O)N[C@H]1CC2(CCN(C3CC(C)(C)CC(C)(C)C3)CC2)c2ccccc21 [compound 641] | < 25 | x (activity was measured to be greater than 5.0 μM) | < 25 | x (activity was measured to be greater than 5.0 μM)
2 | c1ccc2c(c1)CCCC21CCN(C2C[C@@H]3CC[C@H]2C3)CC1 (stereo partly drawn) [compound 642] | 25 to 100 | x (activity was measured to be greater than 5.0 μM) | > 100 | xxx (activity was measured to be less than 2.0 μM)
3 | COc1cc2c(cc1OC)C1(CCN(C3CCCCC3)CC1)C[C@@H]2N(C(C)=O)[C@@H](C)c1ccccc1 [compound 643] | < 25 | x (activity was measured to be greater than 5.0 μM) | < 25 | x (activity was measured to be greater than 5.0 μM)
4 | CC(=O)N1CC2(CCN(CC3CCOCC3)CC2)c2cc(F)ccc21 [compound 644] | < 25 | x (activity was measured to be greater than 5.0 μM) | < 25 | x (activity was measured to be greater than 5.0 μM)
5 | CCC#CCOC(=O)N1CC[C@@H](CN2CCC3(CC2)CN(C(=O)N(C)C)c2ccc(F)cc23)C1 [compound 645] | 25 to 100 | xxx (activity was measured to be less than 2.0 μM) | 25 to 100 | xxx (activity was measured to be less than 2.0 μM)
6 | CC(=O)N[C@H]1CCC2(CCN(C3CCC(C(C)(C)C)CC3)CC2)c2ccccc21 (stereo partly drawn) [compound 646] | 25 to 100 | xxx (activity was measured to be less than 2.0 μM) | < 25 | x (activity was measured to be greater than 5.0 μM)
7 | O=C1CCCN1[C@H]1CCC2(CCN(CC3CCCCC3)CC2)c2ccccc21 [compound 647] | 25 to 100 | xxx (activity was measured to be less than 2.0 μM) | 25 to 100 | xxx (activity was measured to be less than 2.0 μM)
8 | CCOC(=O)N1CCC(N2CCC3(CC2)CN(C(C)=O)c2ccc(-c4cccc(OC)c4)cc23)CC1 [compound 648] | 25 to 100 | xx (activity was measured to be between 2.0 μM and 5.0 μM) | < 25 | x (activity was measured to be greater than 5.0 μM)
9 | CN(C)C(=O)N1CC2(CCN(C3CCN(C(=O)c4cccs4)CC3)CC2)c2cc(F)ccc21 [compound 649] | 25 to 100 | xxx (activity was measured to be less than 2.0 μM) | < 25 | xxx (activity was measured to be less than 2.0 μM)
10 | O=C(N[C@H]1CC2(CCN([C@@H]3CC4CC[C@@H]3C4)CC2)c2ccccc21)C1CC1 [compound 650] | 25 to 100 | xxx (activity was measured to be less than 2.0 μM) | 25 to 100 | xxx (activity was measured to be less than 2.0 μM)
11 | CN(C)C(=O)N1CC2(CCN(C[C@H]3CCN(C(=O)OCC4CC4)C3)CC2)c2cc(F)ccc21 [compound 651] | 25 to 100 | xxx (activity was measured to be less than 2.0 μM) | 25 to 100 | xxx (activity was measured to be less than 2.0 μM)
12 | CC(=O)N[C@H]1CCC2(CCN(C[C@H]3C[C@H]4C=CC3C4)CC2)c2ccccc21 [compound 652] | 25 to 100 | xxx (activity was measured to be less than 2.0 μM) | 25 to 100 | xxx (activity was measured to be less than 2.0 μM)
13 | CCOC(=O)N1CCC(N2CCC3(CC2)CN(C(C)=O)c2c(-c4ccc(C(F)(F)F)cc4)cccc23)CC1 [compound 653] | 25 to 100 | x (activity was measured to be greater than 5.0 μM) | 25 to 100 | x (activity was measured to be greater than 5.0 μM)
14 | CC(=O)N[C@H]1CCC2(CCN(CC3CC4CCC3C4)CC2)c2ccccc21 (stereo partly drawn) [compound 655] | 25 to 100 | xxx (activity was measured to be less than 2.0 μM) | 25 to 100 | xxx (activity was measured to be less than 2.0 μM)
15 | CCC#CCOC(=O)N1CCC(N2CCC3(CC2)CN(C(C)=O)c2ccccc23)CC1 [compound 656] | 25 to 100 | xxx (activity was measured to be less than 2.0 μM) | 25 to 100 | xxx (activity was measured to be less than 2.0 μM)
16 | c1ccc2c(c1)CCCC21CCN(C2C[C@@H]3CC[C@@H](C2)C3)CC1 (stereo partly drawn) [compound 657] | 25 to 100 | xx (activity was measured to be between 2.0 μM and 5.0 μM) | 25 to 100 | xxx (activity was measured to be less than 2.0 μM)
17 | COCCOC(=O)N1CCC(N2CCC3(CC2)CN(CCOC)c2ccc(F)cc23)CC1 [compound 658] | 25 to 100 | xxx (activity was measured to be less than 2.0 μM) | 25 to 100 | xxx (activity was measured to be less than 2.0 μM)
18 | Cc1cnc(C)c(N2CCC(N3CCC4(CC3)CN(C(=O)N(C)C)c3ccc(F)cc34)CC2)n1 [compound 659] | 25 to 100 | xxx (activity was measured to be less than 2.0 μM) | 25 to 100 | xxx (activity was measured to be less than 2.0 μM)
19 | CN(C)C(=O)N1CC2(CCN(C[C@H]3CCN(c4cnccn4)C3)CC2)c2cc(F)ccc21 [compound 660] | > 100 | xxx (activity was measured to be less than 2.0 μM) | > 100 | xxx (activity was measured to be less than 2.0 μM)
20 | CCOC(=O)N1CCC(N2CCC3(CC2)CN(C(C)=O)c2c(-c4ccccc4F)cccc23)CC1 [compound 661] | 25 to 100 | x (activity was measured to be greater than 5.0 μM) | < 25 | x (activity was measured to be greater than 5.0 μM)
21 | C[C@H](O)CC(=O)N1CCC(N2CCC3(CC2)CN(C(=O)N(C)C)c2ccc(F)cc23)CC1 [compound 662] | 25 to 100 | x (activity was measured to be greater than 5.0 μM) | 25 to 100 | xx (activity was measured to be between 2.0 μM and 5.0 μM)
22 | O=C(N[C@H]1CCC2(CCN(C3CCCCCC3)CC2)c2ccccc21)C1CC1 [compound 663] | 25 to 100 | xxx (activity was measured to be less than 2.0 μM) | 25 to 100 | xxx (activity was measured to be less than 2.0 μM)
23 | CCOC(=O)N1C2CCC1CC(N1CCC3(CC[C@H](NC(=O)C4CC4)c4ccccc43)CC1)C2 (stereo partly drawn) [compound 664] | 25 to 100 | xxx (activity was measured to be less than 2.0 μM) | 25 to 100 | xxx (activity was measured to be less than 2.0 μM)
24 | CC(C)C(=O)N1CCC(N2CCC3(CC2)CN(C(=O)N(C)C)c2ccc(F)cc23)CC1 [compound 665] | 25 to 100 | x (activity was measured to be greater than 5.0 μM) | < 25 | x (activity was measured to be greater than 5.0 μM)
25 | CC(=O)N[C@@H]1CCC2(CCN(C3CCCCCC3)CC2)c2ccccc21 [compound 666] | < 25 | x (activity was measured to be greater than 5.0 μM) | 25 to 100 | xxx (activity was measured to be less than 2.0 μM)
26 | Cc1ccc2c(c1)C1(CCN(C3CC4CCC3C4)CC1)CN2C(=O)NC(C)C (stereo not drawn) [compound 667] | < 25 | x (activity was measured to be greater than 5.0 μM) | 25 to 100 | x (activity was measured to be greater than 5.0 μM)
27 | CS(=O)(=O)N[C@H]1CCC2(CCN([C@H]3CC4CC[C@H](C4)C3)CC2)c2ccccc21 [compound 668] | 25 to 100 | xxx (activity was measured to be less than 2.0 μM) | 25 to 100 | xxx (activity was measured to be less than 2.0 μM)
